Each block holds one compound with its values, some of them ahead of it.
Tests used:
[1] = biological target: T1, Prostaglandin G/H synthase 1 (Ovis aries, UniProt P05979); experiment: Inhibition of ovine COX1 assessed as reduction in PGF2alpha production using arachidonic acid as substrate by colorimetric method
T1 sequence (P05979 whole entry): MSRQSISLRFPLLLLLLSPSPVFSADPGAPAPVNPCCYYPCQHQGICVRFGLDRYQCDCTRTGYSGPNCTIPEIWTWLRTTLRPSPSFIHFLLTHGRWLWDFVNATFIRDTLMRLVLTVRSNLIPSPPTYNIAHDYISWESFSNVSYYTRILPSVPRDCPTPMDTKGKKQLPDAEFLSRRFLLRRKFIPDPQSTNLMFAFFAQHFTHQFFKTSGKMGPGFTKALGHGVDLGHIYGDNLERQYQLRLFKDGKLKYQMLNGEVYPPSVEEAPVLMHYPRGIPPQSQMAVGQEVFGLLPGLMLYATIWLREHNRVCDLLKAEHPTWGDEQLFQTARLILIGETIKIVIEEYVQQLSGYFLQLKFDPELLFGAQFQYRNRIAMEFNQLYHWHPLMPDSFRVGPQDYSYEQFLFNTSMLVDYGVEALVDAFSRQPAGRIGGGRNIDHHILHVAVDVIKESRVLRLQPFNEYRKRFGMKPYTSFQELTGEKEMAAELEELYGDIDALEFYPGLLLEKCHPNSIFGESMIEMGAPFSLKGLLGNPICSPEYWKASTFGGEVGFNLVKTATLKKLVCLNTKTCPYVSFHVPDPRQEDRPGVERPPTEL

Rattus norvegicus [2] = experiment: Anti-inflammatory activity in rat acute inflammation model assessed as inhibition of formalin-induced paw edema at 5 mg/kg, po measured after 4 hrs relative to control; format: functional
Rattus norvegicus [3] = experiment: Anti-inflammatory activity in rat acute inflammation model assessed as inhibition of formalin-induced paw edema at 5 mg/kg, po measured after 4 hrs relative to celecoxib; format: functional
Rattus norvegicus [4] = experiment: Anti-inflammatory activity in rat acute inflammation model assessed as inhibition of formalin-induced paw edema at 5 mg/kg, po measured after 4 hrs relative to negative control
[5] = Inhibition of soybean 15-LOX using linoleic acid as substrate by colorimetric method; design: species or system Glycine max
THP-1 [6] = experiment: Inhibition of PMA-induced human THP1 monocytes differentiation in to macrophages preincubated for 6 hrs followed by PMA stimulation by phase contrast microscopic method; format: functional, cell-based
Rattus norvegicus [7] = experiment: Ulcerogenicity in Wistar rat assessed as hyperemia in gastric mucosa at 60 mg/kg, po after 6 hrs; format: toxicity, organism-based; details: in vivo
THP-1 [8] = experiment: Cytotoxicity against human THP1 cells assessed as reduction in cell viability after 30 hrs by MTS assay; format: cell-based; details: thp-1, 30 h
Rattus norvegicus [9] = experiment: Ulcerogenicity in Wistar rat assessed as lymphocytic infilteration in gastric mucosa po after 6 hrs by H and E staining based light microscopic method; details: in vivo
Rattus norvegicus [10] = experiment: Ulcerogenicity in Wistar rat assessed as congested blood vessels in gastric mucosa esophagus at 60 mg/kg, po after 6 hrs by H and E staining based light microscopic method; format: toxicity, organism-based; details: in vivo
Rattus norvegicus [11] = experiment: Ulcerogenicity in Wistar rat assessed as maceration of gastric mucosa at 60 mg/kg, po after 6 hrs by H and E staining based light microscopic method; format: toxicity, organism-based; details: in vivo
Rattus norvegicus [12] = experiment: Ulcerogenicity in Wistar rat assessed as necrosis of gastric mucosa at 60 mg/kg, po after 6 hrs by H and E staining based light microscopic method; format: toxicity, organism-based; details: in vivo
Rattus norvegicus [13] = experiment: Ulcerogenicity in Wistar rat assessed as effect on gastro-esophageal junction at 60 mg/kg, po after 6 hrs by H and E staining based light microscopic method; format: toxicity, organism-based; details: in vivo
[14] = biological target: T2, Serine/threonine-protein kinase Chk1 (Homo sapiens, UniProt O14757); experiment: Inhibition of CHK1 (unknown origin)
T2 sequence (O14757 whole entry): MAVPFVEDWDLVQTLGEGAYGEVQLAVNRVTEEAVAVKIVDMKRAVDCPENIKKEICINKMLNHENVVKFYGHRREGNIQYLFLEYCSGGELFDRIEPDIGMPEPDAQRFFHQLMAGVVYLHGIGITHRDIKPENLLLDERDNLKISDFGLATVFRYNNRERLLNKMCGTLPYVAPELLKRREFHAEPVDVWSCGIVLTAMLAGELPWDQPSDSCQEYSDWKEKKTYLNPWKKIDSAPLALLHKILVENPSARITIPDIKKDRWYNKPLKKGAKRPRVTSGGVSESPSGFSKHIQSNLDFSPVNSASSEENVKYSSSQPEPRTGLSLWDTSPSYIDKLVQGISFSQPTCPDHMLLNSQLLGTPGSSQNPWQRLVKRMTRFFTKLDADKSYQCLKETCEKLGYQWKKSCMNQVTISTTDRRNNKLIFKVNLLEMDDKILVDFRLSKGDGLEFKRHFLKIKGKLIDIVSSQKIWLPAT

IC50 [1]: 7.63 µM
Compound: COc1ccc(-n2c(SCc3cn(-c4ccc(Br)cc4)nn3)nc3ccccc3c2=O)cc1

IC50 [1]: 6.53 µM
Compound: COc1ccc(-n2c(SCc3cc(-c4ccc(OC)c(OC)c4)no3)nc3ccccc3c2=O)cc1

IC50 [1]: 5.89 µM
Compound: O=C(O)c1ccc(-n2cc(CSc3nc4ccccc4c(=O)n3-c3ccccc3)nn2)cc1

IC50 [1]: 5.89 µM
Compound: O=c1c2ccccc2nc(SCc2cn(-c3ccc(Br)cc3)nn2)n1-c1ccccc1

IC50 [1]: 5.61 µM
Compound: O=c1c2ccccc2nc(SCc2cc(-c3ccc(Cl)cc3)no2)n1-c1ccc(Cl)cc1

IC50 [1]: 4.67 µM
Compound: COc1ccc(-c2cc(CSc3nc4ccccc4c(=O)n3-c3ccccc3)on2)cc1
inhibition in vivo at 5 mg/kg (Rattus norvegicus [2]): 61.1% | inhibition in vivo at 5 mg/kg (Rattus norvegicus [3]): 192% | inhibition in vivo at 5 mg/kg (Rattus norvegicus [4]): 50%

Compound: C#CCSc1nc2ccccc2c(=O)n1-c1ccc(Cl)cc1
IC50 [1]: 4.26 µM

IC50 [1]: 3.89 µM | IC50 [5]: 3.98 µM | IC50 (THP-1 [6]): 99.4 µM
Compound: O=c1c2ccccc2nc(SCc2cn(-c3ccc(Br)cc3)nn2)n1-c1ccc(Br)cc1
inhibition in vivo at 5 mg/kg (Rattus norvegicus [2]): 41.7% | inhibition in vivo at 5 mg/kg (Rattus norvegicus [3]): 133% | Activity (Rattus norvegicus [7]): Toxic | Activity (THP-1 [8]): Non-Toxic | Activity (Rattus norvegicus [9]): Toxic | inhibition in vivo at 5 mg/kg (Rattus norvegicus [4]): 50%

IC50 [1]: 2.97 µM | IC50 [5]: 7.62 µM | IC50 (THP-1 [6]): 0.13 µM
Compound: O=C(O)c1ccc(-n2cc(CSc3nc4ccccc4c(=O)n3-c3ccc(Cl)cc3)nn2)cc1
inhibition in vivo at 5 mg/kg (Rattus norvegicus [2]): 70.8% | inhibition in vivo at 5 mg/kg (Rattus norvegicus [3]): 225% | Activity (Rattus norvegicus [7]): Toxic | Activity (Rattus norvegicus [10]): Toxic | Activity (Rattus norvegicus [11]): Non-Toxic | Activity (Rattus norvegicus [12]): Non-Toxic | Activity (THP-1 [8]): Non-Toxic | Activity (Rattus norvegicus [9]): Non-Toxic | inhibition in vivo at 5 mg/kg (Rattus norvegicus [4]): 50%

IC50 [1]: 7.33 µM
Compound: O=c1c2ccccc2nc(SCc2cn(-c3ccccc3)nn2)n1-c1ccccc1

IC50 [1]: 8.79 µM
Compound: O=c1c2ccccc2nc(SCc2cc(-c3ccc(Cl)cc3)no2)n1-c1ccccc1

IC50 [1]: 6.32 µM
Compound: O=c1c2ccccc2nc(SCc2cn(-c3ccc(Cl)cc3)nn2)n1-c1ccc(Cl)cc1

IC50 [1]: 9.14 µM
Compound: O=c1c2ccccc2nc(SCc2cc(-c3ccc(Cl)cc3)no2)n1-c1ccc(Br)cc1

IC50 [1]: 10.2 µM
Compound: COc1ccc(-c2cc(CSc3nc4ccccc4c(=O)n3-c3ccc(Cl)cc3)on2)cc1OC

IC50 [1]: 8.24 µM
Compound: O=c1c2ccccc2nc(SCc2cn(-c3ccccc3)nn2)n1-c1ccc(Cl)cc1

IC50 [1]: 4.36 µM | IC50 [5]: 4.33 µM | IC50 (THP-1 [6]): 1.24 µM
Compound: O=c1c2ccccc2nc(SCc2cn(-c3ccc(Cl)cc3)nn2)n1-c1ccccc1
inhibition in vivo at 5 mg/kg (Rattus norvegicus [2]): 70.8% | inhibition in vivo at 5 mg/kg (Rattus norvegicus [3]): 225% | Activity (Rattus norvegicus [7]): Non-Toxic | Activity (Rattus norvegicus [13]): Non-Toxic | Activity (THP-1 [8]): Non-Toxic | inhibition in vivo at 5 mg/kg (Rattus norvegicus [4]): 50%

IC50 [1]: 11.9 µM
Compound: COc1ccc(-n2c(SCc3cn(-c4ccc(C(=O)O)cc4)nn3)nc3ccccc3c2=O)cc1

IC50 [1]: 8.67 µM
Compound: O=C(O)c1ccc(-n2cc(CSc3nc4ccccc4c(=O)n3-c3ccc(Br)cc3)nn2)cc1

IC50 [1]: 4.78 µM
Compound: O=c1c2ccccc2nc(SCc2cn(-c3ccccc3)nn2)n1-c1ccc(Br)cc1

IC50 [1]: 4.22 µM
Compound: COc1ccc(-n2c(SCc3cn(-c4ccc(Cl)cc4)nn3)nc3ccccc3c2=O)cc1

IC50 [1]: 6.23 µM
Compound: COc1ccc(-c2cc(CSc3nc4ccccc4c(=O)n3-c3ccc(OC)cc3)on2)cc1

IC50 [1]: 5.34 µM
Compound: COc1ccc(-c2cc(CSc3nc4ccccc4c(=O)n3-c3ccc(Br)cc3)on2)cc1
inhibition in vivo at 5 mg/kg (Rattus norvegicus [2]): 61.1% | inhibition in vivo at 5 mg/kg (Rattus norvegicus [3]): 192% | inhibition in vivo at 5 mg/kg (Rattus norvegicus [4]): 50%

IC50 [14]: 1300 nM
Compound: CCCC[C@@H](Sc1nc2ccccc2c(=O)n1-c1cccc(C)c1)C(=O)N1CCC[C@]2(CCCNC2)C1

Compound: C#CCSc1nc2ccccc2c(=O)n1-c1ccc(OC)cc1
IC50 [1]: 6.54 µM

Compound: C#CCSc1nc2ccccc2c(=O)n1-c1ccc(Br)cc1
IC50 [1]: 3.87 µM | IC50 [5]: 6.21 µM | IC50 (THP-1 [6]): 4.77 µM | inhibition in vivo at 5 mg/kg (Rattus norvegicus [2]): 70.8% | inhibition in vivo at 5 mg/kg (Rattus norvegicus [3]): 225% | Activity (Rattus norvegicus [7]): Non-Toxic | Activity (Rattus norvegicus [13]): Non-Toxic | Activity (THP-1 [8]): Non-Toxic | inhibition in vivo at 5 mg/kg (Rattus norvegicus [4]): 50%

IC50 [1]: 9.23 µM
Compound: COc1ccc(-c2cc(CSc3nc4ccccc4c(=O)n3-c3ccccc3)on2)cc1OC

IC50 [1]: 5.27 µM | IC50 [5]: 5.21 µM | IC50 (THP-1 [6]): 5.63 µM
Compound: O=c1c2ccccc2nc(SCc2cn(-c3ccc(Cl)cc3)nn2)n1-c1ccc(Br)cc1
inhibition in vivo at 5 mg/kg (Rattus norvegicus [2]): 70.8% | inhibition in vivo at 5 mg/kg (Rattus norvegicus [3]): 225% | Activity (Rattus norvegicus [7]): Toxic | Activity (Rattus norvegicus [10]): Toxic | Activity (Rattus norvegicus [11]): Non-Toxic | Activity (Rattus norvegicus [12]): Non-Toxic | Activity (THP-1 [8]): Non-Toxic | Activity (Rattus norvegicus [9]): Non-Toxic | inhibition in vivo at 5 mg/kg (Rattus norvegicus [4]): 50%

IC50 [1]: 3.67 µM
Compound: O=c1c2ccccc2nc(SCc2cn(-c3ccc(Br)cc3)nn2)n1-c1ccc(Cl)cc1

IC50 [1]: 4.57 µM
Compound: COc1ccc(-c2cc(CSc3nc4ccccc4c(=O)n3-c3ccc(Br)cc3)on2)cc1OC
inhibition in vivo at 5 mg/kg (Rattus norvegicus [2]): 51.4% | inhibition in vivo at 5 mg/kg (Rattus norvegicus [3]): 167% | inhibition in vivo at 5 mg/kg (Rattus norvegicus [4]): 50%

IC50 [1]: 7.68 µM
Compound: COc1ccc(-n2c(SCc3cc(-c4ccc(Cl)cc4)no3)nc3ccccc3c2=O)cc1

Compound: C#CCSc1nc2ccccc2c(=O)n1-c1ccccc1
IC50 [1]: 3.78 µM

IC50 [1]: 11.2 µM
Compound: COc1ccc(-c2cc(CSc3nc4ccccc4c(=O)n3-c3ccc(Cl)cc3)on2)cc1

IC50 [1]: 10.5 µM
Compound: COc1ccc(-n2c(SCc3cn(-c4ccccc4)nn3)nc3ccccc3c2=O)cc1

Compound: Cc1ccc(-c2cc(C(F)(F)F)nn2-c2ccc(S(N)(=O)=O)cc2)cc1 [CELECOXIB]
inhibition in vivo at 5 mg/kg (Rattus norvegicus [2]): 33.3% | Activity (Rattus norvegicus [13]): Non-Toxic

IC50 (THP-1 [6]): 4.86 µM
Compound: O=C(O)Cc1ccccc1Nc1c(Cl)cccc1Cl [DICLOFENAC]
inhibition in vivo at 5 mg/kg (Rattus norvegicus [2]): 66.7% | inhibition in vivo at 5 mg/kg (Rattus norvegicus [3]): 208% | Activity (THP-1 [8]): Non-Toxic

IC50 [5]: 5.64 µM
Compound: Cc1ccc(Cl)c(Nc2ccccc2C(=O)O)c1Cl [MECLOFENAMATE SODIUM]

IC50 [5]: 2.41 µM
Compound: CC(c1cc2ccccc2s1)N(O)C(N)=O (stereo unspecified) [ZILEUTON]

From ChEMBL document CHEMBL4251628, “Novel click modifiable thioquinazolinones as anti-inflammatory agents: Design, synthesis, biological evaluation and docking study” (Eur J Med Chem, 2018)
